Calls of active or inactive are those of the source. No cut-off for these calls is given here.
What was measured:
[1] = biological target: T1, Cysteinyl leukotriene receptor 1 (Cavia porcellus, UniProt Q2NNR5); experiment: Displacement of [3H]LTD4 on guinea pig lung parenchymal membranes; assay type: tissue-based, Lung parenchyma
T1 sequence (Q2NNR5 whole entry): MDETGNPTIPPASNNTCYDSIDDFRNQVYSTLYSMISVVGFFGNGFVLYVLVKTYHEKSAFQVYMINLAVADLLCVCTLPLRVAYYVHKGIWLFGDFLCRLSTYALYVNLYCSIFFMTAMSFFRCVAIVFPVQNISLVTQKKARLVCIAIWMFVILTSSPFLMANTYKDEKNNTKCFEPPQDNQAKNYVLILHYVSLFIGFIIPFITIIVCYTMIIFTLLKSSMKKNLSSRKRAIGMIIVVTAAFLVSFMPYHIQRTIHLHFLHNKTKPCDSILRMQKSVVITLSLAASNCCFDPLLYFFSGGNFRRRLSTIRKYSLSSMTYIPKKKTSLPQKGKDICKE

[2] = test system: Cysteinyl leukotriene receptor 1 (Cavia porcellus); experiment: Dissociation constant (Kb) against LTD4
[3] = biological target: Cysteinyl leukotriene receptor 1 (Cavia porcellus); experiment: Inhibition constant for displacement of [3H]LTD4 on guinea pig lung parenchymal membranes.
[4] = test system: Cavia porcellus; experiment: Effective dose of compound was measured in vivo for blocking LTD4 induced dyspnea after po administration.; assay type: functional
[5] = species: Cavia porcellus; experiment: Inhibition of peptidoleukotriene LTE4 induced contraction of guinea pig tracheal spirals at the concentration of 1 uM.; assay type: functional; conditions: Trachea
[6] = species: Cavia porcellus; experiment: Inhibition of peptidoleukotriene LTE4 induced contraction of guinea pig tracheal spirals at the concentration of 3.3 uM; Not significant; assay type: functional; conditions: Trachea
[7] = biological target: T1, Cysteinyl leukotriene receptor 1; experiment: Inhibition constant for displacement of [3H]LTD4 on guinea pig lung parenchymal membranes.; assay type: tissue-based, Lung parenchyma
[8] = species: Cavia porcellus; experiment: Inhibition of peptidoleukotriene LTE4 induced contraction of guinea pig tracheal spirals at the concentration of 100 uM.; assay type: functional; conditions: Trachea
[9] = test system: Cavia porcellus; experiment: Percent protection of animals against aerosolized LTD4-induced dyspnea at the concentration of 0.6 mg/kg.; assay type: functional; conditions: inhaled or nasal
[10] = test system: Cavia porcellus; experiment: Percent protection of animals against aerosolized LTD4-induced dyspnea at the concentration of 1.8 mg/kg.; assay type: functional
[11] = species: Cavia porcellus; experiment: Inhibition of peptidoleukotriene LTE4 induced contraction of guinea pig tracheal spirals at the concentration of 3.3 uM.; assay type: functional; conditions: Trachea
[12] = test system: Cavia porcellus; experiment: Percent protection of animals against aerosolized LTD4-induced dyspnea at the concentration of 0.6 mg/kg; Not significant; assay type: functional, organism-based; set-up: dose 0.6 mg/kg

Structure (SMILES)	pKB [2]	Ki [3] [nM]	also measured
COc1cc(C(=O)O)ccc1Cn1ncc2ccc(NC(=O)CC3CCCC3)cc21	–	–	Ki [1]: 50 nM
CCCCCC(=O)Nc1ccc2c(c1)c(Cc1ccc(C(=O)O)cc1OC)cn2Cc1ccccc1	–	–	inhibition at 1 µM [5]: 38%
CCCn1cc(Cc2ccc(C(=O)NS(=O)(=O)c3ccccc3)cc2OC)c2cc(NC(=O)OC3CCCC3)ccc21	8.44	–	ED50 [4]: 1 mg/kg
CCCn1cc(Cc2ccc(C(=O)O)cc2OC)c2cc(NC(=O)CC3CCCC3)ccc21	–	84	–
CCCCCC(=O)Nc1ccc2c(c1)c(Cc1ccc(C(=O)O)cc1OC)cn2CC(=O)O	–	–	inhibition [6]: inactive
COc1cc(C(=O)O)ccc1Cn1ncc2ccc(NC(=O)OC3CCCC3)cc21	–	–	Ki [1]: 80 nM
COc1cc(C(=O)O)ccc1Cc1cn(C)c2ccc(NC(=O)CC3CCCC3)cc12	–	–	Ki [7]: 80 nM; inhibition at 100 µM [8]: 94%
COc1cc(C(=O)NS(=O)(=O)c2ccccc2)ccc1Cc1cn(C)c2ccc(NC(=O)NC3CCCC3)cc12	–	–	Ki [1]: 0.8 nM; ED50 [4]: ~35 mg/kg
COc1cc(C(=O)NS(=O)(=O)c2ccccc2C)ccc1Cc1cn(C)c2ccc(NC(=O)OC3CCCC3)cc12 [ZAFIRLUKAST]	–	–	ED50 [4]: 0.3 mg/kg
COc1cc(C(=O)O)ccc1Cc1nn(C)c2ccc(NC(=O)CC3CCCC3)cc12	–	132	–
CCCCCC(=O)Nc1ccc2[nH]cc(Cc3ccc(C(=O)O)cc3OC)c2c1	–	–	inhibition at 3.3 µM [11]: 64%
CCCn1cc(Cc2ccc(C(=O)NS(=O)(=O)c3ccccc3)cc2OC)c2cc(NC(=O)NC3CCCC3)ccc21	9.2	–	Ki [1]: 0.5 nM
COc1cc(C(=O)NS(=O)(=O)c2ccccc2Cl)ccc1Cc1nn(C)c2ccc(NC(=O)CC3CCCC3)cc12	–	0.3	protection at 0.6 mg/kg [9]: 48%
CCCc1c(OCCCCc2nnn[nH]2)ccc(C(C)=O)c1O [TOMELUKAST]	–	–	Ki [1]: 2820 nM
COc1cc(C(=O)O)ccc1Cc1cn(C)c2ccc(NC(=O)OC3CCCC3)cc12	7.84	–	Ki [7]: 157 nM; inhibition at 100 µM [8]: 75%
COc1cc(C(=O)O)ccc1Cc1cn(C)c2ccc(NC(=O)NC3CCCC3)cc12	–	–	Ki [7]: 1120 nM
COc1cc(C(=O)NS(=O)(=O)c2ccccc2Br)ccc1Cc1nn(C)c2ccc(NC(=O)OC3CCCC3)cc12	–	0.3	ED50 [4]: 1.1 mg/kg
CCCCCC(=O)Nc1ccc2c(c1)c(Cc1ccc(C(=O)O)cc1OC)cn2C	–	–	Ki [7]: 1900 nM; inhibition at 1 µM [5]: 77%
COc1cc(C(=O)NS(=O)(=O)c2ccccc2Cl)ccc1Cc1nn(C)c2ccc(NC(=O)CC3CCCCC3)cc12	–	0.25	ED50 [12]: inactive; protection at 1.8 mg/kg [10]: 71%
COc1cc(C(=O)NS(=O)(=O)C(C)C)ccc1Cc1cn(Cc2cccc(C#N)c2)c2ccc(NC(=O)CC3CCCC3)cc12	9.28	6.8	–
COc1cc(C(=O)O)ccc1Cc1cn(Cc2cccc(C#N)c2)c2ccc(NC(=O)CC3CCCC3)cc12	8.55	10	–
C=CCn1cc(Cc2ccc(C(=O)O)cc2OC)c2cc(NC(=O)CCCCC)ccc21	–	–	inhibition at 1 µM [5]: 43%
COc1cc(C(=O)O)ccc1Cn1ccc2ccc(NC(=O)OC3CCCC3)cc21	7.8	–	Ki [1]: 160 nM
COc1cc(C(=O)NS(=O)(=O)c2ccccc2Br)ccc1Cc1cn(C)c2ccc(NC(=O)CC3CCCC3)cc12	10.1	0.5	–
CCCC(CC)C(=O)Nc1ccc2c(c1)c(Cc1ccc(C(=O)O)cc1OC)cn2C (stereo unspecified)	–	–	Ki [7]: 1830 nM
COc1cc(C(=O)O)ccc1Cc1nn(C)c2ccc(NC(=O)OC3CCCC3)cc12	–	–	Ki [1]: 160 nM
COc1cc(C(=O)NS(=O)(=O)c2ccccc2Cl)ccc1Cc1cn(C)c2ccc(NC(=O)NC3CCCC3)cc12	10.2	0.7	–
COc1cc(C(=O)O)ccc1Cc1cn(C2CCCC2)c2ccc(NC(=O)OC3CCCC3)cc12	7.67	53	–
COCCn1cc(Cc2ccc(C(=O)O)cc2OC)c2cc(NC(=O)OC3CCCC3)ccc21	–	–	Ki [7]: 41 nM
COc1cc(C(=O)O)ccc1Cc1c[nH]c2ccc(NC(=O)OC3CCCC3)cc12	7.32	–	Ki [7]: 236 nM

Now from value to compound, other results behind:

pKB [2]	Ki [3] [nM]	Structure (SMILES)	also measured
7.84	67	COc1cc(C(=O)NS(=O)(=O)c2ccccc2)ccc1Cc1cn(C2CCCC2)c2ccc(NC(=O)OC3CCCC3)cc12	–
9.69	–	COc1cc(C(=O)NS(=O)(=O)c2ccccc2C)ccc1Cc1c[nH]c2ccc(NC(=O)CC3CCCC3)cc12	Ki [1]: 1 nM; ED50 [4]: 1.3 mg/kg
–	0.1	COc1cc(C(=O)NS(=O)(=O)c2ccccc2Cl)ccc1Cc1nn(C)c2ccc(NC(=O)NC3CCC3)cc12	ED50 [4]: 1 mg/kg
9.8	–	COc1cc(C(=O)NS(=O)(=O)c2ccccc2)ccc1Cc1cn(C)c2ccc(NC(=O)CC3CCCC3)cc12	Ki [1]: 0.3 nM; ED50 [4]: 1 mg/kg
7.68	–	COc1cc(C(=O)O)ccc1Cn1ccc2ccc(NC(=O)CC3CCCC3)cc21	Ki [1]: 200 nM
–	0.3	COc1cc(C(=O)NS(=O)(=O)c2ccccc2C)ccc1Cc1nn(C)c2ccc(NC(=O)CC3CCCC3)cc12	protection at 0.6 mg/kg [9]: 47%; protection at 1.8 mg/kg [10]: 100%
9.69	0.8	COc1cc(C(=O)NS(=O)(=O)c2ccccc2)ccc1Cc1cn(C)c2ccc(NC(=O)OC3CCCC3)cc12	ED50 [4]: 2.5 mg/kg
9.64	–	COc1cc(C(=O)NS(=O)(=O)c2ccccc2C)ccc1Cc1cn(C)c2ccc(NC(=O)CC3CCCC3)cc12	Ki [1]: 0.5 nM; ED50 [4]: 0.2 mg/kg
9.85	0.3	COc1cc(C(=O)NS(=O)(=O)c2ccccc2Cl)ccc1Cc1cn(C)c2ccc(NC(=O)CC3CCCC3)cc12	–
9.8	1.4	COc1cc(C(=O)NS(=O)(=O)c2ccccc2)ccc1Cc1c[nH]c2ccc(NC(=O)OC3CCCC3)cc12	–
7.72	–	CCCn1cc(Cc2ccc(C(=O)O)cc2OC)c2cc(NC(=O)OC3CCCC3)ccc21	Ki [7]: 58 nM
9.31	–	COc1cc(C(=O)NS(=O)(=O)c2ccccc2C)ccc1Cc1cn(C)c2ccc(NC(=O)NC3CCCC3)cc12	Ki [1]: 1.4 nM; ED50 [4]: 0.9 mg/kg
–	0.25	COc1cc(C(=O)NS(=O)(=O)c2ccccc2)ccc1Cc1nn(C)c2ccc(NC(=O)OC3CCCC3)cc12	–
9	5.6	COc1cc(C(=O)NS(C)(=O)=O)ccc1Cc1cn(Cc2cccc(C#N)c2)c2ccc(NC(=O)CC3CCCC3)cc12	–
–	71	CCn1cc(Cc2ccc(C(=O)O)cc2OC)c2cc(NC(=O)CC3CCCC3)ccc21	–
–	57	COc1cc(C(=O)O)ccc1Cc1cn(CC2CC2)c2ccc(NC(=O)OC3CCCC3)cc12	–
–	70	COc1cc(C(=O)O)ccc1Cc1cn(Cc2ccccc2)c2ccc(NC(=O)CC3CCCC3)cc12	–
9.39	0.2	COCCn1cc(Cc2ccc(C(=O)NS(=O)(=O)c3ccccc3)cc2OC)c2cc(NC(=O)OC3CCCC3)ccc21	ED50 [4]: 1.1 mg/kg
–	0.3	COc1cc(C(=O)NS(=O)(=O)c2ccccc2Cl)ccc1Cc1nn(C)c2ccc(NC(=O)OC3CCCC3)cc12	ED50 [4]: 1 mg/kg
–	0.3	COc1cc(C(=O)NS(=O)(=O)c2ccccc2C)ccc1Cc1nn(C)c2ccc(NC(=O)OC3CCCC3)cc12	ED50 [4]: 0.5 mg/kg

Reference: ChEMBL document CHEMBL1124803, “Evolution of a series of peptidoleukotriene antagonists: synthesis and structure/activity relationships of 1,3,5-substituted indoles and indazoles” (J Med Chem, 1990)
